Assay results taken from US10377718B2, “Apelin receptor (APJ) agonists and uses thereof” (Research Triangle Institute, priority 2014, dated 2019).

How the values were obtained:
[1] = target: T1, apelin receptor (APJ) (Homo sapiens, UniProt P35414); assay: in vitro apelin agonist activity (methods of Giddings et al., Apelin-13 as positive control); type: cell-based; conditions: apelin agonist activity, Giddings et al. method; read-out: agonist activity (EC50)
T1 sequence (P35414 1-380): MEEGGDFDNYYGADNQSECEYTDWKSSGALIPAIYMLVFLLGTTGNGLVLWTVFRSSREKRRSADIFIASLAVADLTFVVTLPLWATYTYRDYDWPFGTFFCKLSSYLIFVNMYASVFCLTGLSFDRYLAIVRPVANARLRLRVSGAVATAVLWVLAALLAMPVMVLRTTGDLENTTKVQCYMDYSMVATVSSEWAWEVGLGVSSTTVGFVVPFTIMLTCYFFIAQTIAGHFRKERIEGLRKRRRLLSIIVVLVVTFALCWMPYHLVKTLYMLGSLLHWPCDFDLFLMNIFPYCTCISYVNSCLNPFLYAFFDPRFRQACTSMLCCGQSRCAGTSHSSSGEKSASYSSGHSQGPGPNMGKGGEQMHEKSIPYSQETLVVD
Source text: The compounds above were studied for their in vitro activity as apelin agonists using the methods described by Giddings et al. Giddings et al., 2010 Int J High Thro Screen. 1:39-47, the contents of which are hereby incorporated by reference in its entirety.

[2] = system: C57BL/6 mice; assay: in vivo blood pressure lowering activity, non-invasive blood pressure and heart rate after IP injection; set-up: Systolic Baseline / Diastolic Baseline: unit not given here; conditions: for Diastolic Baseline / HR Baseline / Mean pressure Baseline / Systolic Baseline: baseline before dosing; for Diastolic % change / HR % change / Mean pressure % change / Systolic % change: postdose vs baseline; for HR Postdose: in bpm (unit assumed); for Diastolic Postdose / Mean pressure Postdose / Systolic Postdose: in mmHg (unit assumed)
Experimental: The compounds were also assayed for blood pressure activity using C57BL/6 mice and the procedure described by Tatemoto et al. The novel peptide apelin lowers blood pressure via a nitric oxide-dependent mechanism. Regul Pept. 2001; 99: 87-92. […] Studies have been published citing reductions in blood pressure occur following peptide apelin administration. Apelin-13 was used as a positive control. Knockout C57BL/6 mice lacking APJ have cardiovascular deficiencies. […] Charo et al. Am J Physiol Heart Circ Physiol. 2009 November 297(5):[…] et al. J Physiol Biochem. 2007 December; 63(4):359-73. Blood pressure measurements in these species of mice have been reported in the literature. […] et al. Am J Physiol Heart Circ Physiol. 2003 February; 284(2):[…]-74. On the first day of the study, 11 animals were treated with apelin-13, 11 with vehicle alone, and 11 as sham controls. The two later groups were used to determine effects (if any) of the vehicle or injection alone on blood pressure (BP). The experiment was conducted as follows: The animals were restrained and a baseline measurement taken for 5 min. Animals were injected and immediately monitored for 15 minutes. The effect of test agents should be apparent within this time. Tatemoto et al. reported that the effects of Apelin-13 were apparent within minutes. Tatemoto et al. 2001 Immediately following dosing, blood pressure (diastolic, systolic and mean pressure) and heart rate for each animal was recorded for up to 15 minutes using a Kent Scientific CODA Non-Invasive Blood Pressure System. […] On day 2-5 a similar protocol was used in increasing doses. The animals were randomized daily in three groups of 11 to receive either of the two experimental compounds by IP injection. […] At the end of the 5-day dosing period, all animals were humanely euthanized. [table]

For `CCCCNC(=O)C[C@H](CC(C)C)NC(=O)c1cc(-c2c(OC)cccc2OC)n(CC(C)C)n1` [compound 143, (S)-N-(1-(Butylamino)-5-methyl-1-oxohexan-3-yl)-5-(2,6-dimethoxyphenyl)-1-isobutyl-1H-pyrazole-3-carboxamide], the EC50 [1] was under 10 µM, the “Diastolic Baseline” value ([2]; Day 2, 1 mg/kg IP) was 127 and the “HR Baseline” value ([2]; Day 2, 1 mg/kg IP) was 706. For the same compound, the “Mean pressure Baseline” value ([2]; Day 2, 1 mg/kg IP) was 138, the “Systolic Baseline” value ([2]; Day 2, 1 mg/kg IP) was 161 and the Diastolic % change ([2]; Day 2, 1 mg/kg IP) was 1%. The HR % change ([2]; Day 2, 1 mg/kg IP) was 3%, the “Mean pressure % change” value ([2]; Day 2, 1 mg/kg IP) was 0% and the Systolic % change ([2]; Day 2, 1 mg/kg IP) was −1%. The “HR Postdose” value ([2]; Day 2, 1 mg/kg IP) was 727, the “Diastolic Postdose” value ([2]; Day 2, 1 mg/kg IP) was 129 and the “Mean pressure Postdose” value ([2]; Day 2, 1 mg/kg IP) was 139. For the same compound, the “Systolic Postdose” value ([2]; Day 2, 1 mg/kg IP) was 160, the “Diastolic Baseline” value ([2]; Day 3, 3 mg/kg IP) was 132 and the “HR Baseline” value ([2]; Day 3, 3 mg/kg IP) was 665. For the same compound, the “Mean pressure Baseline” value ([2]; Day 3, 3 mg/kg IP) was 142, the “Systolic Baseline” value ([2]; Day 3, 3 mg/kg IP) was 163 and the Diastolic % change ([2]; Day 3, 3 mg/kg IP) was −4%. For the same compound, the HR % change ([2]; Day 3, 3 mg/kg IP) was 15%, the “Mean pressure % change” value ([2]; Day 3, 3 mg/kg IP) was −4% and the Systolic % change ([2]; Day 3, 3 mg/kg IP) was −3%. For the same compound, the “HR Postdose” value ([2]; Day 3, 3 mg/kg IP) was 763, the “Diastolic Postdose” value ([2]; Day 3, 3 mg/kg IP) was 127 and the “Mean pressure Postdose” value ([2]; Day 3, 3 mg/kg IP) was 137. The “Systolic Postdose” value ([2]; Day 3, 3 mg/kg IP) was 158, the “Diastolic Baseline” value ([2]; Day 4, 10 mg/Kg IP) was 131.3 and the “HR Baseline” value ([2]; Day 4, 10 mg/Kg IP) was 669.3. For the same compound, the “Mean pressure Baseline” value ([2]; Day 4, 10 mg/Kg IP) was 143, the “Systolic Baseline” value ([2]; Day 4, 10 mg/Kg IP) was 167.5 and the Diastolic % change ([2]; Day 4, 10 mg/Kg IP) was −5%. The HR % change ([2]; Day 4, 10 mg/Kg IP) was 11%, the “Mean pressure % change” value ([2]; Day 4, 10 mg/Kg IP) was −6% and the Systolic % change ([2]; Day 4, 10 mg/Kg IP) was −6%. The “HR Postdose” value ([2]; Day 4, 10 mg/Kg IP) was 745, the “Diastolic Postdose” value ([2]; Day 4, 10 mg/Kg IP) was 124.2 and the “Mean pressure Postdose” value ([2]; Day 4, 10 mg/Kg IP) was 134.8. For the same compound, the “Systolic Postdose” value ([2]; Day 4, 10 mg/Kg IP) was 157.1, the “Diastolic Baseline” value ([2]; Day 5, 30 mg/Kg IP) was 130 and the “HR Baseline” value ([2]; Day 5, 30 mg/Kg IP) was 733.9. The “Mean pressure Baseline” value ([2]; Day 5, 30 mg/Kg IP) was 141, the “Systolic Baseline” value ([2]; Day 5, 30 mg/Kg IP) was 164.1 and the Diastolic % change ([2]; Day 5, 30 mg/Kg IP) was −9%. For the same compound, the HR % change ([2]; Day 5, 30 mg/Kg IP) was −2%, the “Mean pressure % change” value ([2]; Day 5, 30 mg/Kg IP) was −9% and the Systolic % change ([2]; Day 5, 30 mg/Kg IP) was −8%. The “HR Postdose” value ([2]; Day 5, 30 mg/Kg IP) was 722.8, the “Diastolic Postdose” value ([2]; Day 5, 30 mg/Kg IP) was 118.8 and the “Mean pressure Postdose” value ([2]; Day 5, 30 mg/Kg IP) was 128.9. The “Systolic Postdose” value ([2]; Day 5, 30 mg/Kg IP) was 150.2.

In the case of `COc1cccc(OC)c1-c1cc(C(=O)N[C@H](CC(=O)NC2CCC2)CC(C)C)nn1CC(C)C` [compound 173], the EC50 [1] is reported as under 10 µM, the “Diastolic Baseline” value ([2]; Day 2, 1 mg/kg IP) is reported as 114 and the “HR Baseline” value ([2]; Day 2, 1 mg/kg IP) is reported as 681. For the same compound, the “Mean pressure Baseline” value ([2]; Day 2, 1 mg/kg IP) was 126, the “Systolic Baseline” value ([2]; Day 2, 1 mg/kg IP) was 151 and the Diastolic % change ([2]; Day 2, 1 mg/kg IP) was 3%. For the same compound, the HR % change ([2]; Day 2, 1 mg/kg IP) was 5%, the “Mean pressure % change” value ([2]; Day 2, 1 mg/kg IP) was 1% and the Systolic % change ([2]; Day 2, 1 mg/kg IP) was −1%. The “HR Postdose” value ([2]; Day 2, 1 mg/kg IP) was 716, the “Diastolic Postdose” value ([2]; Day 2, 1 mg/kg IP) was 118 and the “Mean pressure Postdose” value ([2]; Day 2, 1 mg/kg IP) was 128. The “Systolic Postdose” value ([2]; Day 2, 1 mg/kg IP) was 149, the “Diastolic Baseline” value ([2]; Day 3, 3 mg/kg IP) was 127 and the “HR Baseline” value ([2]; Day 3, 3 mg/kg IP) was 661. The “Mean pressure Baseline” value ([2]; Day 3, 3 mg/kg IP) was 136, the “Systolic Baseline” value ([2]; Day 3, 3 mg/kg IP) was 156 and the Diastolic % change ([2]; Day 3, 3 mg/kg IP) was 2%. The HR % change ([2]; Day 3, 3 mg/kg IP) was 12%, the “Mean pressure % change” value ([2]; Day 3, 3 mg/kg IP) was 2% and the Systolic % change ([2]; Day 3, 3 mg/kg IP) was 2%. The “HR Postdose” value ([2]; Day 3, 3 mg/kg IP) was 738, the “Diastolic Postdose” value ([2]; Day 3, 3 mg/kg IP) was 129 and the “Mean pressure Postdose” value ([2]; Day 3, 3 mg/kg IP) was 139. The “Systolic Postdose” value ([2]; Day 3, 3 mg/kg IP) was 159, the “Diastolic Baseline” value ([2]; Day 4, 10 mg/Kg IP) was 114.9 and the “HR Baseline” value ([2]; Day 4, 10 mg/Kg IP) was 682.5. The “Mean pressure Baseline” value ([2]; Day 4, 10 mg/Kg IP) was 126.3, the “Systolic Baseline” value ([2]; Day 4, 10 mg/Kg IP) was 150.5 and the Diastolic % change ([2]; Day 4, 10 mg/Kg IP) was 4%. For the same compound, the HR % change ([2]; Day 4, 10 mg/Kg IP) was 10%, the “Mean pressure % change” value ([2]; Day 4, 10 mg/Kg IP) was 2% and the Systolic % change ([2]; Day 4, 10 mg/Kg IP) was 0%. The “HR Postdose” value ([2]; Day 4, 10 mg/Kg IP) was 749.4, the “Diastolic Postdose” value ([2]; Day 4, 10 mg/Kg IP) was 119.3 and the “Mean pressure Postdose” value ([2]; Day 4, 10 mg/Kg IP) was 129.2. For the same compound, the “Systolic Postdose” value ([2]; Day 4, 10 mg/Kg IP) was 150, the “Diastolic Baseline” value ([2]; Day 5, 30 mg/Kg IP) was 122.2 and the “HR Baseline” value ([2]; Day 5, 30 mg/Kg IP) was 701.1. For the same compound, the “Mean pressure Baseline” value ([2]; Day 5, 30 mg/Kg IP) was 133, the “Systolic Baseline” value ([2]; Day 5, 30 mg/Kg IP) was 155.7 and the Diastolic % change ([2]; Day 5, 30 mg/Kg IP) was −4%. For the same compound, the HR % change ([2]; Day 5, 30 mg/Kg IP) was 3%, the “Mean pressure % change” value ([2]; Day 5, 30 mg/Kg IP) was −4% and the Systolic % change ([2]; Day 5, 30 mg/Kg IP) was −5%. The “HR Postdose” value ([2]; Day 5, 30 mg/Kg IP) was 721.7, the “Diastolic Postdose” value ([2]; Day 5, 30 mg/Kg IP) was 117.5 and the “Mean pressure Postdose” value ([2]; Day 5, 30 mg/Kg IP) was 127.4. For the same compound, the “Systolic Postdose” value ([2]; Day 5, 30 mg/Kg IP) was 148.2.

`COC(=O)CN(C)C(=O)C[C@H](CC(C)C)NC(=O)c1cc(-c2c(OC)cccc2OC)n(CC(C)C)n1` [compound 218] showed an EC50 [1] of under 10 µM.

`COC(=O)CN(C)C(=O)[C@H](CC(C)C)NC(=O)c1cc(-c2c(OC)cccc2OC)n(CC(C)C)n1` [compound 219] gave an EC50 [1] of under 10 µM.

In the case of `CCCNC(=O)[C@H](CCc1ccccc1)NC(=O)c1cc(-c2c(OC)cccc2OC)n(CC(C)C)n1` [compound 225], the EC50 [1] is reported as under 10 µM.

For `COc1cccc(OC)c1-c1cc(C(=O)N[C@@H](CCc2ccccc2)C(=O)N2CCCC2)nn1CC(C)C` [compound 226], the EC50 [1] was under 10 µM.

For `COC(=O)CNC(=O)C[C@H](CC(C)C)N(C)C(=O)c1cc(-c2c(OC)cccc2OC)n(CC(C)C)n1` [compound 238], the EC50 [1] was under 10 µM.

Work on `COC(=O)CNC(=O)C[C@H](CCCC1CCCCC1)NC(=O)c1cc(-c2c(OC)cccc2OC)n(CC(C)C)n1` [compound 242] yielded an EC50 [1] of under 10 µM.
